# Assay results from US9890166B2, “Imidazopyrrolidine derivatives and their use in the treatment of disease” (NOVARTIS AG, priority 2013, dated 2018).
# What was measured:
# K-562 cells = assay: Cell growth inhibition assay (CellTiter-Glo), K-562; conditions: for GI50: Homo sapiens, K562, read-out: K-562 GI50; for K-562 TGI: K-562 cells, total growth inhibition, CellTiter-Glo;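 as to all read-outs here: cellular ATP measured by luminescence after 4 days of exposure, 3-fold dilution series from 10 µM, DMSO vehicle-treated cells define 100%, cell-free medium wells −100%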
# MV-4-11 cells = assay: Cell growth inhibition assay (CellTiter-Glo), MV-4-11; conditions: for GI50: Homo sapiens, MV4-11, read-out: MV-4-11 GI50; for MV-4-11 TGI: MV-4-11 cells, total growth inhibition, CellTiter-Glo;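 as to all read-outs here: cellular ATP luminescence after 4 days, 3-fold dilution series from 10 µM top dose, vehicle (0.1% DMSO) set to 100%, cell-free medium set to −100%, day 0 corrected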
# [1] = target: nuclear BRD4-NUT foci in HCC2494 NUT midline carcinoma cells (Homo sapiens, UniProt O60885); assay: cell-based
# THP-1 cells = assay: Cell growth inhibition assay (CellTiter-Glo), THP-1; conditions: for GI50: Homo sapiens, THP-1, read-out: THP-1 GI50; for THP-1 TGI: THP-1 cells, total growth inhibition, CellTiter-Glo;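 as to all read-outs here: viability read as cellular ATP luminescence after 4 days, 3-fold dilution series from 10 µM, DMSO vehicle-treated cells taken as 100%, cell-free medium wells as −100%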
# BRD2 (His-Brd2(60-472)) = BRD2 (His-Brd2(60-472)) (Homo sapiens (Human), UniProt P25440); assay: TR-FRET in-vitro binding assay for BRD2; conditions: single determination or n ≧ 2 independent determinations, read-out: Biochemical IC50 BRD2
# BRD2 (His-Brd2(60-472)), sequence (P25440 60-472): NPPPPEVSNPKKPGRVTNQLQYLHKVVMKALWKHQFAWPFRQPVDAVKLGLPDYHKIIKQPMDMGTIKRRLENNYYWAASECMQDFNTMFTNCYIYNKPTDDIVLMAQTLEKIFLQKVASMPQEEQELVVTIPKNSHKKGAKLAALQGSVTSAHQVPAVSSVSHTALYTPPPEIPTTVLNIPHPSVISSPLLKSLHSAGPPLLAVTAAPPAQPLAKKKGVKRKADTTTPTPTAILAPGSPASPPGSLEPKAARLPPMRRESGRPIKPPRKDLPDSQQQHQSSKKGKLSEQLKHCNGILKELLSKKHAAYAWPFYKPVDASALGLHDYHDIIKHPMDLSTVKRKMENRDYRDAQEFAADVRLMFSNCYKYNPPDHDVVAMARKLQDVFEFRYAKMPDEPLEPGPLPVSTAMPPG
# How it was run: (§1)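 In this TR-FRET format, each compound was tested as an 8-point dilution series, single point per concentration, dispensed from 90% DMSO solution. Incubation lasted 35 minutes at 30° C.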
# BRD3 (His-Brd3(20-477)) = BRD3 (His-Brd3(20-477)) (Homo sapiens (Human), UniProt Q15059); assay: TR-FRET in-vitro binding assay for BRD3; conditions: single determination or n ≧ 2 independent determinations, read-out: Biochemical IC50 BRD3
# BRD3 (His-Brd3(20-477)), sequence (Q15059 20-477): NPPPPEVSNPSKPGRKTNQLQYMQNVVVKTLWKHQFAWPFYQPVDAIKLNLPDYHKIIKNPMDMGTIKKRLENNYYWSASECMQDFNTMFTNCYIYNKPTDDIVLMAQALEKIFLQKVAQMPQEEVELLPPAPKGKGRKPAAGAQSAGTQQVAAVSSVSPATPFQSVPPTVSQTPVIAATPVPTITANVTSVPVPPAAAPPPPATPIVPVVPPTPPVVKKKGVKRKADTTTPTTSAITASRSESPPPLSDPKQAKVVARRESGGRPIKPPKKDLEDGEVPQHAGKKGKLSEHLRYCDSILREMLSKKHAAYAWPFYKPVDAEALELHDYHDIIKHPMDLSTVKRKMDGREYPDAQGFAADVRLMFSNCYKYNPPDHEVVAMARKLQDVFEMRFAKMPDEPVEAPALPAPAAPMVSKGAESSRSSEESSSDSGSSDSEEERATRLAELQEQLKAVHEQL
# How it was run: as §1
# BRD4 (His-Brd4(44-477)) = BRD4 (His-Brd4(44-477)) (Homo sapiens (Human), UniProt O60885); assay: TR-FRET in-vitro binding assay for BRD4; conditions: single determination or n ≧ 2 independent determinations, read-out: Biochemical IC50 BRD4
# How it was run: as §1
# [2] = target: CREBBP bromodomain (His-CREBBP(1081-1197)) (Homo sapiens (Human), UniProt Q92793); assay: AlphaScreen in-vitro binding assay for CREBBP; conditions: single determination or n ≧ 2 independent determinations, read-out: Biochemical IC50 CREBBP
# CREBBP bromodomain (His-CREBBP(1081-1197)), sequence (Q92793 1081-1197): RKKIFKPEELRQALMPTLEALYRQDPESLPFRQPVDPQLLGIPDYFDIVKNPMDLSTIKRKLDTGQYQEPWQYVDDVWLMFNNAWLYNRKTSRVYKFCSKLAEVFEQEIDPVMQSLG
# How it was run: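 Detection used nickel-chelate acceptor plus streptavidin donor AlphaScreen beads, 1 h room temperature. Percent inhibition fitted by non-linear regression to IC50.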
SMILES,GI50 (K-562 cells) [nM],K-562 TGI (K-562 cells) [nM],GI50 (MV-4-11 cells) [nM],MV-4-11 TGI (MV-4-11 cells) [nM],IC50 [1] [nM],GI50 (THP-1 cells) [nM],THP-1 TGI (THP-1 cells) [nM],IC50 (BRD2 (His-Brd2(60-472))) [nM],IC50 (BRD3 (His-Brd3(20-477))) [nM],IC50 (BRD4 (His-Brd4(44-477))) [nM],IC50 [2] [nM]
"Cc1cc(N2C(=O)c3nc(C4=CCOCC4)n(C(C)C)c3C2c2ccc(Cl)cc2)cn2c(C)nnc12 (stereo not shown) [Example 14, 6-(4-chlorophenyl)-2-(3,6-dihydro-2H-pyran-4-yl)-5-(3,8-dimethyl-[1,2,4]triazolo[4,3-a]pyridin-6-yl)-1-isopropyl-5,6-dihydropyrrolo[3,4-d]imidazol-4(1H)-one]",203,>10000,20.4,38.8,40.9,66,120,33,15,16,2300
"Cc1cc(N2C(=O)c3nc(-c4ncco4)n(C(C)C)c3C2c2ccc(Cl)cc2)cn2c(C)nnc12 (stereo not shown) [Example 15, 6-(4-chlorophenyl)-5-(3,8-dimethyl-[1,2,4]triazolo[4,3-a]pyridin-6-yl)-1-isopropyl-2-(oxazol-2-yl)-5,6-dihydropyrrolo[3,4-d]imidazol-4(1H)-one]",318,>10000,42,86.25,80,71.9,132,48,41,37,16100
"COc1ccc(-c2nc3c(n2C)C(c2ccc(Cl)cc2)N(c2cc(C)c4nnc(C)n4c2)C3=O)cn1 (stereo not shown) [Example 16, 6-(4-chlorophenyl)-5-(3,8-dimethyl-[1,2,4]triazolo[4,3-a]pyridin-6-yl)-2-(6-methoxypyridin-3-yl)-1-methyl-5,6-dihydropyrrolo[3,4-d]imidazol-4(1H)-one]",562,>10000,74.3,125.5,263,220,370,49,47,45,> 24000
"COc1cc(N2C(=O)c3nc(C4CC4)n(C(C)C)c3C2c2ccc(Cl)cc2)cn2c(C)nnc12 (stereo not shown) [Example 17, 6-(4-chlorophenyl)-2-cyclopropyl-1-isopropyl-5-(8-methoxy-3-methyl-[1,2,4]triazolo[4,3-a]pyridin-6-yl)-5,6-dihydropyrrolo[3,4-d]imidazol-4(1H)-one]",1080,>10000,166,316.5,323,322,704.5,100,75,41,> 37000
"CCn1c(-c2ccc(OC)nc2)nc2c1C(=O)N(c1cc(C)c(=O)n(C)c1)C2c1ccc(Cl)cc1 (stereo not shown) [Example 38, 6-(4-chlorophenyl)-5-(1,5-dimethyl-6-oxo-1,6-dihydropyridin-3-yl)-3-ethyl-2-(6-methoxypyridin-3-yl)-5,6-dihydropyrrolo[3,4-d]imidazol-4(3H)-one]",271,>10000,30.1,48.9,24.5,74.9,118,92.5,76,78,2000
"CCn1c(-c2ccc(OC)nc2)nc2c1C(=O)N(c1cc(C)c(=O)n(C)c1)[C@@H]2c1ccc(Cl)cc1 [Example 39, (R)-6-(4-chlorophenyl)-5-(1,5-dimethyl-6-oxo-1,6-dihydropyridin-3-yl)-3-ethyl-2-(6-methoxypyridin-3-yl)-5,6-dihydropyrrolo[3,4-d]imidazol-4(3H)-one]",72,>10000,11.7,23.9,21.1,26.2,48.1,24,32,28.5,910
"CCn1c(-c2cccnc2OC)nc2c1C(=O)N(c1cc(C)c(=O)n(C)c1)[C@@H]2c1ccc(Cl)cc1 [Example 41, (R)-6-(4-chlorophenyl)-5-(1,5-dimethyl-6-oxo-1,6-dihydropyridin-3-yl)-3-ethyl-2-(2-methoxypyridin-3-yl)-5,6-dihydropyrrolo[3,4-d]imidazol-4(3H)-one]",45.2,>10000,6.72,11,7,13.8,30.6,15.5,17,16,430
"CCn1c(-c2ccnn2C)nc2c1C(=O)N(c1cc(C)c(=O)n(C)c1)C2c1ccc(Cl)cc1 (stereo not shown) [Example 42, 6-(4-chlorophenyl)-5-(1,5-dimethyl-6-oxo-1,6-dihydropyridin-3-yl)-3-ethyl-2-(1-methyl-1H-pyrazol-5-yl)-5,6-dihydropyrrolo[3,4-d]imidazol-4(3H)-one]",274,>10000,53.5,102.3,64.2,74.3,126,65,61,69,3400
"Cc1cc(N2C(=O)c3nc(-c4nccs4)n(C4CC4)c3C2c2ccc(Cl)cc2)cn(C)c1=O (stereo not shown) [Example 43, 6-(4-chlorophenyl)-1-cyclopropyl-5-(1,5-dimethyl-6-oxo-1,6-dihydropyridin-3-yl)-2-(thiazol-2-yl)-5,6-dihydropyrrolo[3,4-d]imidazol-4(1H)-one]",356,>10000,66.2,99.55,52.9,90.5,162.5,59.5,55,64,32300
"COc1ncccc1-c1nc2c(n1C(C)C)C(=O)N(c1cc(C)c(=O)n(C)c1)[C@@H]2c1ccc(Cl)cc1 [Example 45, (R)-6-(4-chlorophenyl)-5-(1,5-dimethyl-6-oxo-1,6-dihydropyridin-3-yl)-3-isopropyl-2-(2-methoxypyridin-3-yl)-5,6-dihydropyrrolo[3,4-d]imidazol-4(3H)-one]",126,>10000,22.5,43.9,49.7,32.8,60.5,17,17,16,1000
"Cc1cc(N2C(=O)c3[nH]c(C4CC4)nc3C2c2ccc(Cl)cc2)cn(C)c1=O (stereo not shown) [Example 46, 6-(4-chlorophenyl)-2-cyclopropyl-5-(1,5-dimethyl-6-oxo-1,6-dihydropyridin-3-yl)-5,6-dihydropyrrolo[3,4-d]imidazol-4(3H)-one]",499,>10000,65.3,108,226,145,305,84,77,78,2000
